From patent US11179391B2, “Compound with kinase inhibitory activity and preparation method and use thereof” (priority 2017, dated 2021)

What was measured:
CDK4/CycD3 = CDK4/CycD3 (Homo sapiens, UniProt P11802); test: Determination of CDK activity (Caliper mobility shift, FAM-P8 peptide): CDK4; assay type: biochemical; conditions: CDK4/CycD3; read-out: CDK4 enzymatic inhibitory activity (IC50)
In short: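 GST-CDK4(1-303)/GST-CycD3(1-292) was preincubated with compound for 10 min at room temperature, then FAM-P8 peptide and ATP were added; the reaction ran at 28 °C and was stopped with EDTA-containing stop buffer. Peptide conversion was read by Caliper mobility shift. A 10-point dilution series was fitted for IC50.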

CDK6/cycD3 = CDK6/cycD3 (Homo sapiens, UniProt Q00534); test: Determination of CDK activity (Caliper mobility shift, FAM-P8 peptide): CDK6; assay type: biochemical; conditions: CDK6/cycD3; read-out: CDK6 enzymatic inhibitory activity (IC50)
CDK6/cycD3, sequence (Q00534 whole entry): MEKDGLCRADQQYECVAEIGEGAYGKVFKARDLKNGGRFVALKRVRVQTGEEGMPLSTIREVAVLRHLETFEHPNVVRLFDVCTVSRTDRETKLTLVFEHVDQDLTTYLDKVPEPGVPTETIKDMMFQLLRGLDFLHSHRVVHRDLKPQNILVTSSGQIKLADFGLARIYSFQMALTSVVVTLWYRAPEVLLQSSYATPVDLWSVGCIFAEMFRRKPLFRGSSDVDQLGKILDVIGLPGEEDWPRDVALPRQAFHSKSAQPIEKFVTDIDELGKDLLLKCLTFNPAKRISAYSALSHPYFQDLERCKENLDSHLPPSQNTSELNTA
CDK6/cycD3, sequence (P30281 whole entry partner): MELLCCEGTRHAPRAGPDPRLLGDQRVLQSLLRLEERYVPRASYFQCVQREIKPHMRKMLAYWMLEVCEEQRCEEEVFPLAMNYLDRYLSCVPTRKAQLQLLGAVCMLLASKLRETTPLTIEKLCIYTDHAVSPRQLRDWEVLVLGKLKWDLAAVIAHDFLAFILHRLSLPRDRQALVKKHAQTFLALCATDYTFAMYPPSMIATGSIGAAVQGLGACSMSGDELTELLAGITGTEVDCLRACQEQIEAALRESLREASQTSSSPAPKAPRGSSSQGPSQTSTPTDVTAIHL
In short: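 GST-CDK6(1-326)/cycD3 with FAM-P8 peptide and ATP, after 10 min room-temperature enzyme–compound preincubation; reaction at 28 °C, then EDTA stop. Substrate conversion read by Caliper mobility shift; inhibition from no-compound and no-enzyme controls, IC50 fitted over 10-point dilution in DMSO.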

CDK1/CyclinB = CDK1/CyclinB (Homo sapiens, UniProt P06493); test: Determination of CDK activity (Caliper mobility shift, FAM-P8 peptide): CDK1; assay type: biochemical; conditions: CDK1/CyclinB; read-out: CDK1 enzymatic inhibitory activity (IC50)
CDK1/CyclinB, sequence (P06493 whole entry): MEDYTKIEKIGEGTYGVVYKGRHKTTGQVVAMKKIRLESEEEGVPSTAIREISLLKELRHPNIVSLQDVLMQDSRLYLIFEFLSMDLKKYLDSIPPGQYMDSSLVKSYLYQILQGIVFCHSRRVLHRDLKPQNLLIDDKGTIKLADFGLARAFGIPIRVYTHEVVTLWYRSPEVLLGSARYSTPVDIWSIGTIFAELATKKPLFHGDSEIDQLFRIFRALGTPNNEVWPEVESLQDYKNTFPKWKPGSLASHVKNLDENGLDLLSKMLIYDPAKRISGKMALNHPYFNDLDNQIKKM
CDK1/CyclinB, sequence (P14635 whole entry partner): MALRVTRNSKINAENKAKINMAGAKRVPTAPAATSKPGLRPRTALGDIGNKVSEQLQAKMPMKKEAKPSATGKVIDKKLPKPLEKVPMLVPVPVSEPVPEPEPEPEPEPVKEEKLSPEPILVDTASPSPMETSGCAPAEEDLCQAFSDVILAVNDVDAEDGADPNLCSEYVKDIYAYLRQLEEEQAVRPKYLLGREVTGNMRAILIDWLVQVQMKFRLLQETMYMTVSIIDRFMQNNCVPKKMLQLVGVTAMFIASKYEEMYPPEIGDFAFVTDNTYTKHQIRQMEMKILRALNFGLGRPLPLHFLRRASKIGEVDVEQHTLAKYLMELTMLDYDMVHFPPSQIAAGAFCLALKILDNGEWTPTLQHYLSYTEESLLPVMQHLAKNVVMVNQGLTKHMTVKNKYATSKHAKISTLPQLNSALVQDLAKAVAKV

CDK2/CycA2 = CDK2/CycA2 (Homo sapiens, UniProt P24941); test: Determination of CDK activity (Caliper mobility shift, FAM-P8 peptide): CDK2; assay type: biochemical; conditions: CDK2/CycA2; read-out: CDK2 enzymatic inhibitory activity (IC50)
CDK7/CyclinH/MAT1 = CDK7/CyclinH/MAT1 (Homo sapiens, UniProt P50613); test: Determination of CDK activity (Caliper mobility shift, FAM-P8 peptide): CDK7; assay type: biochemical; conditions: CDK7/CyclinH/MAT1; read-out: CDK7 enzymatic inhibitory activity (IC50)
CDK7/CyclinH/MAT1, sequence (P50613 whole entry): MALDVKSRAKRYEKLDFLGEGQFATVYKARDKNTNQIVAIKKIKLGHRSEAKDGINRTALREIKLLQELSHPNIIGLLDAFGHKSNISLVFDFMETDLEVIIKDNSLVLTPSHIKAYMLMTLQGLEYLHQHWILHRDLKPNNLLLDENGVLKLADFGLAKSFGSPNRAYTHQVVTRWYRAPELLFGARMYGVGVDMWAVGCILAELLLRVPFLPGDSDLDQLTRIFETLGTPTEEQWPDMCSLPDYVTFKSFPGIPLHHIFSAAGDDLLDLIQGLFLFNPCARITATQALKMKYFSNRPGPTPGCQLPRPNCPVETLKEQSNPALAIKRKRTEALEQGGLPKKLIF
CDK7/CyclinH/MAT1, sequence (P51946 whole entry partner): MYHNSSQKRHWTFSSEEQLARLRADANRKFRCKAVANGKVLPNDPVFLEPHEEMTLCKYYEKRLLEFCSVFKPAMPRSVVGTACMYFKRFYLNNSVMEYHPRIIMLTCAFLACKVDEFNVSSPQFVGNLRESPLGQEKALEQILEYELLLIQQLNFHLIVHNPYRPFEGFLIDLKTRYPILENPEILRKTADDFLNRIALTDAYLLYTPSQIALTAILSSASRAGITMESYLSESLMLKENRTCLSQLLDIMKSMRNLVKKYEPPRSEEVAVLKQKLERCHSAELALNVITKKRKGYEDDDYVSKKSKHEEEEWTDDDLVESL
CDK7/CyclinH/MAT1, sequence (P51948 whole entry partner): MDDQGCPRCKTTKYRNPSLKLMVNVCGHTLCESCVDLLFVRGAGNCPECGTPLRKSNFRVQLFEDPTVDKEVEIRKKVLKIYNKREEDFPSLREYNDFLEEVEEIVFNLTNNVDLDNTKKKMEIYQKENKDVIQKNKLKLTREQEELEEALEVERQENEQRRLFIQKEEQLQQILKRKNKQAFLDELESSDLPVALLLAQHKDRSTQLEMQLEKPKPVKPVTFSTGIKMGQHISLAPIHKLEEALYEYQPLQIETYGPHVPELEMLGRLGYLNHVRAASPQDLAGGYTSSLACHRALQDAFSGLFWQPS
In short: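 His-CDK7/GST-MAT1/cyclin H preincubated with compound (10-point series) 10 min at room temperature, then reacted with FAM-P8 peptide plus ATP at 28 °C for a set time before stopping. Peptide conversion read by Caliper mobility shift; converted to % inhibition vs controls and IC50 fitted.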

CDK9/cyclinTl = CDK9/cyclinTl (Homo sapiens, UniProt P50750); test: Determination of CDK activity (Caliper mobility shift, FAM-P8 peptide): CDK9; assay type: biochemical; conditions: CDK9/cyclinTl; read-out: CDK9 enzymatic inhibitory activity (IC50)
CDK9/cyclinTl, sequence (P50750 whole entry): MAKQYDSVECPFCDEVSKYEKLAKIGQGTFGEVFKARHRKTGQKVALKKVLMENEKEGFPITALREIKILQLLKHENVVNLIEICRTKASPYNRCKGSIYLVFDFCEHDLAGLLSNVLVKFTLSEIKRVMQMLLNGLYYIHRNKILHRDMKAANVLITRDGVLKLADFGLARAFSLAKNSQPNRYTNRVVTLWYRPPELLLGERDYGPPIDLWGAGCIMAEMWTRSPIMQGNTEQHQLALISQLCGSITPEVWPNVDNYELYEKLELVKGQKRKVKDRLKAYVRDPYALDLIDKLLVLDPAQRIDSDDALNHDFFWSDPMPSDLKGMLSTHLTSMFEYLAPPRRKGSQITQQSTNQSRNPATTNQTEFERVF
CDK9/cyclinTl, sequence (O60563 whole entry partner): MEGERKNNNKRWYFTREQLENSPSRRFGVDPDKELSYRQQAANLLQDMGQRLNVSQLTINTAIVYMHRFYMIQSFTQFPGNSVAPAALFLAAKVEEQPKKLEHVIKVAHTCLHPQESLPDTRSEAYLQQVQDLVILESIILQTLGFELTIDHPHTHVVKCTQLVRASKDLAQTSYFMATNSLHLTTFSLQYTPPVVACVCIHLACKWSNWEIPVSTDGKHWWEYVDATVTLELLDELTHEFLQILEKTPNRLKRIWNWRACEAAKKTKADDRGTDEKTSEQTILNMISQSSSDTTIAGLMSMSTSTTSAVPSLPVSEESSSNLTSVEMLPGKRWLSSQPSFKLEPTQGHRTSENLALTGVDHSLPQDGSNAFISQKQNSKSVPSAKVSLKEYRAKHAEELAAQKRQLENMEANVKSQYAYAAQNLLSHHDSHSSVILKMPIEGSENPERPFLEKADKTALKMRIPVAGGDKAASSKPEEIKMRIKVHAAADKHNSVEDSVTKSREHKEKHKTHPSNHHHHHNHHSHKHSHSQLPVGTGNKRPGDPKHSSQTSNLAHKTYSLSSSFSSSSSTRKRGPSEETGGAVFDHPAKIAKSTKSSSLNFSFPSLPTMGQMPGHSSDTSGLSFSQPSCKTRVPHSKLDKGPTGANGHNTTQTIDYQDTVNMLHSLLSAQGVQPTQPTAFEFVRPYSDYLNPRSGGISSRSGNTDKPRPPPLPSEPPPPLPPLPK

[1] = Pharmacokinetic study in rats; assay type: in vivo, Sprague-Dawley rats; conditions: for F / Cmax / Tmax / clearance / half-life / AUC(0-t): male Sprague-Dawley rats; for F: iv 2 mg/kg and oral 5 mg/kg; for Cmax / Tmax / clearance / half-life / AUC(0-t): rat, plasma, study dosed iv 2 mg/kg and oral 5 mg/kg, route of this parameter not given; for AUC(0-t): read-out: AUC0-24 h
Experimental: Healthy adult Sprague-Dawley rats, male, 7-10 weeks old, weighing 240-270 g, provided by Beijing Vital River Laboratory Animal Technology Co., Ltd., with an animal certificate number of 1140070278736.
Test compounds of the invention: example 17, 33, 40, and 57.
Intravenous administration solvent system of compounds: 10% (V/V) NMP and 90% (20% (V/V)) SBE-β-CD in 16.667 mM PBS with a concentration of 1.0 mg/mL.
Oral administration solvent system of compounds: pure water system containing 0.1% hydroxyethyl cellulose and 0.5% Tween-80, with a concentration of 1 mg/mL.
Intravenous administration: 3 male Sprague-Dawley rats of each test compound were injected intravenously after fasting overnight, with a dose of 2 mg/kg, and the dosing volume was 2 mL/kg. […]
Before the administration, and after administration of 0.0833 (iv), 0.25, 0.5, 1, 2, 4, 8, 12, and 24 h, the jugular vein puncture (approximately 0.15 mL per time point) of each animal was performed by collecting blood from polypropylene tubes. All blood samples were transferred to pre-cooled EDTA-K2 test tubes or pre-cooled plastic microcentrifuge tubes containing 3 μL of 0.5 M EDTA-K2 as anticoagulant and placed on wet ice until centrifugation. Each collected blood was centrifuged at 4° C. for 15 minutes, and plasma was collected. All plasma would be stored in a freezer at about −80° C. until LCMS/MS detection.

[2] = tested on: Human colorectal cancer Colo-205 cells; test: Pharmacodynamic study on mouse Colo-205 model (subcutaneous xenograft); assay type: in vivo, BALB/c nude mice; conditions: Colo-205 model, mesylate, 50 mg/kg PO × 28 days
Excerpt: BALB/c nude mice, 6-8 weeks old, weighing 12-14 g, female, provided by Shanghai Lab Animal Research Center (Shanghai Xipuer-Beikai) with an animal certificate No: 2008001682093.
The experiment was started after 3-7 days in the experimental environment when the animals arrived. Animals were housed in IVC (independent air supply system) cages (Four animals per cage) in SPF grade experimental animal facilities. Each cage animal information card contained the number of animals in the cage, sex, strain, receiving date, dosing schedule, experiment number, group and start date of the experiment. All cages, bedding, and drinking water were sterilized before use and were updated twice a week.
4.3 Tumor Cell Inoculation Method
Human colorectal cancer Colo-205 cells (ATCC-CCL-222) were cultured in vitro in monolayer under the conditions of RPMI 1640 medium with 10% fetal bovine serum, 100 U/mL penicillin and 100 μg/mL streptomycin, and 37° C. 5% CO2 incubator. The passage was routinely digested with trypsin-EDTA twice a week. When the cell saturation was up to 80%-90% and reached the requirement, the cells were collected, counted and inoculated. 0.2 mL (5×10^6) Colo-205 cells were subcutaneously inoculated on the right back of each mouse, and mice were randomly grouped and dosed when the average tumor volume reached 163 mm^3.
4.14 mL of lactic acid was added to a large beaker containing 800 mL of deionized water, and the pH was adjusted to 4.0 with 5 N NaOH. Then the volume was fixed to 1,000 mL to obtain 50 mmol/L sodium lactate buffer.
The subcutaneous tumor volume of nude mice was measured 2-3 times a week, and the mice were weighed, and the data were recorded.
4.6 Analysis and Evaluation
Experimental evaluation index: the tumor growth inhibition rate TGI (%) or the relative tumor proliferation rate T/C (%) was used for evaluation, wherein T was the experimental group, and C was the vehicle group.

[3] = rat plasma, at the dose of 10 mg/kg

CDK4/CycD3, sequence (P11802 whole entry): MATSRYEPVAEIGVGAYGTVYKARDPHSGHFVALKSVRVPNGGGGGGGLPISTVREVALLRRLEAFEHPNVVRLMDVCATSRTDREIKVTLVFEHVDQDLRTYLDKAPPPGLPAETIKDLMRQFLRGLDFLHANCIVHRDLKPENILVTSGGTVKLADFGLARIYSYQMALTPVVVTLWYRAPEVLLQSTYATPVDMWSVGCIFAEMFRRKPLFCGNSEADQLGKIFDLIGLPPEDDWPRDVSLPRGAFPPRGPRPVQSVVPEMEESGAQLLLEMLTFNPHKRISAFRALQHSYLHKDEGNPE
CDK4/CycD3, sequence (P30281 whole entry partner): as the sequence (P30281 whole entry partner) above

SMILES	IC50 (CDK4/CycD3) [nM]	IC50 (CDK6/cycD3) [nM]	IC50 (CDK1/CyclinB) [nM]	IC50 (CDK2/CycA2) [nM]	IC50 (CDK7/CyclinH/MAT1) [nM]	IC50 (CDK9/cyclinTl) [nM]	F [1] [%]	clearance in rat plasma (in words) [1, 3]	half-life in rat plasma (in words) [1, 3]	level of exposure at 24 h in rat plasma (in words) [1, 3]	Cmax [1] [ng/mL]	Tmax [1] [h]	clearance [1] [mL/min/kg]	half-life [1] [min]	AUC(0-t) [1] [ng·h/mL]	Tumor volume (day 0) ([2]; baseline at start of dosing) [mm^3]	Tumor volume (day 28) [2] [mm^3]	TGI tumor growth inhibition rate ([2]; day 28) [%]
C=C(c1ccc(Nc2ncc(F)c(-c3cc(F)c4nc(C)n(C(C)C)c4c3)n2)nc1)C1CCN(CC)CC1 [Example 33, N-(5-(1-(1-ethylpiperidin-4-yl)vinyl)pyridin-2-yl)-5-fluoro-4-(4-fluoro-1-isopropyl-2-methyl-1H-benzo[d]imidazol-6-yl) pyrimidin-2-amine]	< 100	< 100	100 to 500	< 100	1000 to 10000	< 100	43.7	lower clearance	longer half-life	high level of exposure	161	8	12.1	491	2570	–	–	–
CCN1CCC(C(O)c2ccc(Nc3ncc(F)c(-c4cc(F)c5nc(C)n(C(C)C)c5c4)n3)nc2)CC1 (single isomer, unassigned) [Example 40, (R or S)-(1-ethylpiperidin-4-yl)(6-((5-fluoro-4-(4-fluoro-1-isopropyl-2-methyl-1H-benzo [d]imidazol-6-yl)pyrimidin-2-yl)amino)pyridin-3-yl) methanol]	< 100	< 100	< 100	< 100	500 to 1000	< 100	13.3	–	–	–	12.9	4	72.8	714	132	–	–	–
CCN1CCN(Cc2ccc(Nc3ncc(F)c(-c4cc(F)c5nc(C)n(C(C)C)c5c4)n3)nc2)CC1 [Abemaciclib, reference compound]	–	–	–	–	–	–	–	–	–	–	–	–	–	–	–	198	749	74.5
